{"source": "patent US11312721B2", "about": "(priority 2015, dated 2022)", "key": {"[1]": {"biological_target": "T1, GABAA α5 receptor (Rattus norvegicus, UniProt P19969)", "T1 construct": "from tissue", "T1 sequence (P19969 32-464 limits assumed)": "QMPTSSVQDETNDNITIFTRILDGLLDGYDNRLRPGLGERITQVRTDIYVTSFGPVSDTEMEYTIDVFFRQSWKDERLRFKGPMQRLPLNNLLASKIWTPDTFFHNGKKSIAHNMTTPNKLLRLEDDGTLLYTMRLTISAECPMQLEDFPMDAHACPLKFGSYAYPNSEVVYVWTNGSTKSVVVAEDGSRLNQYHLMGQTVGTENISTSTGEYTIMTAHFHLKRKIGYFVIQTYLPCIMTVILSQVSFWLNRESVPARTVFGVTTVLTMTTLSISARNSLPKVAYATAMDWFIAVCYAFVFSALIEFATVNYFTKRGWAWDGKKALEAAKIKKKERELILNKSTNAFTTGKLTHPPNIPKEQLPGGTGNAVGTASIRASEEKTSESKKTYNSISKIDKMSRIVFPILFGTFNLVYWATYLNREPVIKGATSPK", "test": "GABAA α5 receptor occupancy in vivo with Ro 15-4513 tracer", "set-up": "species or system Long Evans rats", "conditions": "for effect on Ro 15-4513 binding in hippocampus and cerebellum: 0.01-10 mg/kg", "text": "Food and water were available ad libitum."}, "[2]": {"biological_target": "T2, α5β3γ2 GABAA receptors (Ltk cells) (Homo sapiens, UniProt P18507+P31644)", "T2 construct": "membranes", "T2 sequence (P31644 32-462)": "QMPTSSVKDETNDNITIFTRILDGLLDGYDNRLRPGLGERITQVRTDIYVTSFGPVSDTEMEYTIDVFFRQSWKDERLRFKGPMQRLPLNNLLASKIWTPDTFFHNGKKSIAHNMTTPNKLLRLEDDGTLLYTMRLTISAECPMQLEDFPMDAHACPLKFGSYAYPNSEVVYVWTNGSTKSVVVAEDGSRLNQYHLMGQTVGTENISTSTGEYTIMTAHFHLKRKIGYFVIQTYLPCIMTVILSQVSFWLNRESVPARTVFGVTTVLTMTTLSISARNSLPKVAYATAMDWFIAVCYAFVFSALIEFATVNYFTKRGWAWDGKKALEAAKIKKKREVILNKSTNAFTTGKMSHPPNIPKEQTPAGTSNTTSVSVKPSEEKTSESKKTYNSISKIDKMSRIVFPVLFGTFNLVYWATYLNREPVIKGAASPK", "T2 sequence (P28472 26-473 partner)": "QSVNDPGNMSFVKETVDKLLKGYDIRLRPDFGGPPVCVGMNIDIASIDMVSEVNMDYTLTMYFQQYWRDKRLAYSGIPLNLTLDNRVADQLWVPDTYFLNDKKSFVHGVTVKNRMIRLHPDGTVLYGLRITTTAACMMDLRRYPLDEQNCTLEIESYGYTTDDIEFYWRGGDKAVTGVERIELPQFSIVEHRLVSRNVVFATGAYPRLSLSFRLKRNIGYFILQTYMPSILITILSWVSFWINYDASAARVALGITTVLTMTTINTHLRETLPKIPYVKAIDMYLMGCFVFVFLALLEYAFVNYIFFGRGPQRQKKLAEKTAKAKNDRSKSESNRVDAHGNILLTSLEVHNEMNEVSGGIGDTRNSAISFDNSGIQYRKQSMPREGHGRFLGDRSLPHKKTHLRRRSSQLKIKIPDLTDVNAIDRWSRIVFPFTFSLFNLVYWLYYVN", "T2 sequence (P18507 40-475)": "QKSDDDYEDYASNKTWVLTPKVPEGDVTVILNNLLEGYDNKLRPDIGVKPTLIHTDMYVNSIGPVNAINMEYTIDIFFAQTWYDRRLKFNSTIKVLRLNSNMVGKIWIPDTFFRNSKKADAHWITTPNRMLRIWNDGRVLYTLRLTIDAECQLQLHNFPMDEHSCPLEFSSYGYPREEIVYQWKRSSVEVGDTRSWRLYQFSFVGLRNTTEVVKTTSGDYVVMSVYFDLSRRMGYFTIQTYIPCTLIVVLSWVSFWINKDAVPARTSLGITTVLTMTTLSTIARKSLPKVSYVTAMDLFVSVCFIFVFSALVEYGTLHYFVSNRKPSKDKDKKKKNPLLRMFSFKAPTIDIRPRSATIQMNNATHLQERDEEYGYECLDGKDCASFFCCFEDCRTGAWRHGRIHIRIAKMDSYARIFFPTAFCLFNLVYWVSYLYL", "test": "Binding activity on GABAAR: inhibition of [3H]Ro15-1788 binding", "procedure": "Tissue culture and Membrane Preparation: The binding was performed on Ltk cells stably expressing GABAA receptors: α1β1γ2, α2β3γ2, α3β3γ2 and α5β3γ2 (provided by Merck Co., NJ, USA). Cells were seeded in 100 mm culture plates in DMEM/F12 medium containing 10% serum and antibiotics in 5% CO2 and allowed to grow for 1-2 days. GABAAR expression was then induced by dexamethasone as follows: 0.5 μM for 1 day for α5 containing and 2 μM for 3 days for α1, α2 and α3 containing GABAARs. After induction, cells were collected by scraping into Dulbecco's Phosphate buffered saline (DPBS, pH 7.4, Invitrogen, Carlsbad, Calif., USA) and centrifuged at 150×g for 10 min. The pellet was washed twice by re-suspension and centrifugation. The cell pellets from at least 5 different preps were combined, suspended in the binding assay buffer (50 mM KH2PO4; 1 mM EDTA; 0.2 M KCl, pH 7.4) and membranes prepared by sonication (3-5 times, 30 sec) using Branson Sonifier 150 (G. Heinmann, Germany). Protein content was determined using BCA assay (Bio-Rad Labs, Reinach, Switzerland) with Bovine Serum Albumin (Sigma Aldrich, St. Louis, Mo., USA) as the standard. Aliquots were prepared and stored at −20° C. for further use in binding assays.\nLigand Binding: Saturation binding curves were obtained by incubating membranes with increasing concentrations (0.01-8 nM) of [^3H]Ro15-1788 (Flumazepil, 75-85 Ci/mmol, PerkinElmer, MA, USA), with nonspecific binding measured in the presence of 10 μM diazepam.\nAll binding assays were performed for 1 h at 4° C. in assay buffer. The total assay volume was 0.5 ml containing 0.2 mg/ml protein for α5 and 0.4 mg/ml for α1, α2, and α3 containing GABAAR membranes. Incubations were terminated by filtration through GF/B filters using a 24-Cell Harvestor (Brandel, Gaithersburg, Md., USA) followed by 3 washes with ice-cold assay buffer. Filters were transferred to scintillation vials, 5 ml scintillation liquid added, vortex-mixed and kept in dark. Next day, radioactivity was obtained using a scintillation counter (Beckman Coulter, Brea, Calif., USA). All assays were performed in triplicate.\nData Analyses: Saturation and inhibition curves were obtained using GraphPad Prism software (GraphPad Software, Inc., CA, USA)."}, "[3]": {"biological_target": "T3, GABAA receptors (α5β2γ2) (Homo sapiens, UniProt P18507+P31644)", "T3 construct": "expressed in transfected cells", "T3 sequence (P31644 32-462)": "as the sequence (P31644 32-462) above", "T3 sequence (P47870 25-512 partner limits assumed)": "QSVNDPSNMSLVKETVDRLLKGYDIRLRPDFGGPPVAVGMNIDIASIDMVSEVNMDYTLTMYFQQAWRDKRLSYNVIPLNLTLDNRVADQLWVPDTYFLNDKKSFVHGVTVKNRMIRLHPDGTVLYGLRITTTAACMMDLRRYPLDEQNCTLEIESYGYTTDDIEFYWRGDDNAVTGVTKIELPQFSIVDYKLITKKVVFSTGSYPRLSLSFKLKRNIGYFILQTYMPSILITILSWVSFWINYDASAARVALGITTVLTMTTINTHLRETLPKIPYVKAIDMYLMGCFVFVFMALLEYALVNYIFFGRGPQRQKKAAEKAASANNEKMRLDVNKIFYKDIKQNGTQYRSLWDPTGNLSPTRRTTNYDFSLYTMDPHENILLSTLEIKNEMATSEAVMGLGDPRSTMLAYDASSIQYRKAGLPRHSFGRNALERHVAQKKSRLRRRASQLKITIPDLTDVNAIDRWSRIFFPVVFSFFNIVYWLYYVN", "T3 sequence (P18507 40-475)": "as the sequence (P18507 40-475) above", "test": "Positive allosteric modulator activity: potentiation of EC20 GABA current in oocytes", "format": "cell-based", "conditions": "read-out: GABA α5 functional potentiation"}, "[4]": {"system": "MAM-treated rats", "conditions": "cited from earlier work"}, "[5]": {"system": "aged-impaired (AI) rats", "test": "Radial Arm Maze (RAM) behavioral task, spatial memory retention", "format": "in vivo, rat", "conditions": "four-hour delay RAM", "procedure": "The effects of methyl 3,5-diphenylpyridazine-4-carboxylate on the in vivo spatial memory retention of aged-impaired (AI) rats were assessed in a Radial Arm Maze (RAM) behavioral task using vehicle control and four different dosage levels of methyl 3,5-diphenylpyridazine-4-carboxylate ([…]). RAM behavioral tasks were performed on eight AI rats. All five treatment conditions (vehicle and four dosage levels) were tested on all eight rats.\nThe RAM apparatus used consisted of eight equidistantly-spaced arms. An elevated maze arm (7 cm width×75 cm length) projected from each facet of an octagonal center platform (30 cm diameter, 51.5 cm height). Clear side walls on the arms were 10 cm high and were angled at […] to form a trough. A food well (4 cm diameter, 2 cm deep) was located at the distal end of each arm. Froot Loops™ (Kellogg Company) were used as rewards. Blocks constructed of Plexiglas™ (30 cm height×12 cm width) could be positioned to prevent entry to any arm. Numerous extra maze cues surrounding the apparatus were also provided.\nThe AI rats were initially subjected to a pre-training test (Chappell et al. Neuropharmacology 37: 481-487, 1998). The pre-training test consisted of a habituation phase (4 days), a training phase on the standard win-shift task (18 days) and another training phase (14 days) in which a brief delay was imposed between presentation of a subset of arms designated by the experimenter (e.g., 5 arms available and 3 arms blocked) and completion of the eight-arm win-shift task (i.e., with all eight arms available).\nIn the habituation phase, rats were familiarized to the maze for an 8-minute session on four consecutive days. In each of these sessions, food rewards were scattered on the RAM, initially on the center platform and arms and then progressively confined to the arms. After this habituation phase, a standard training protocol was used, in which a food pellet was located at the end of each arm. Rats received one trial each day for 18 days. Each daily trial terminated when all eight food pellets had been obtained or when either 16 choices were made or 15 minutes had elapsed. After completion of this training phase, a second training phase was carried out in which the memory demand was increased by imposing a brief delay during the trial. At the beginning of each trial, three arms of the eight-arm maze were blocked. Rats were allowed to obtain food on the five arms to which access was permitted during this initial “information phase” of the trial. Rats were then removed from the maze for 60 seconds, during which time the barriers on the maze were removed, thus allowing access to all eight arms. Rats were then placed back onto the center platform and allowed to obtain the remaining food rewards during this “retention test” phase of the trial. […]"}, "[6]": {"system": "aged-impaired (AI) rats", "test": "Morris water maze behavioral task", "format": "in vivo, rat", "conditions": "100 μg ICV", "procedure": "The effects of 6,6 dimethyl-3-(3-hydroxypropyl)thio-1-(thiazol-2-yl)-6,7-dihydro-2-benzothiophen-4(5H)-one on the in vivo spatial memory retention of aged-impaired (AI) rats were assessed in a Morris water maze behavioral task. A water maze is a pool surrounded with a novel set of patterns relative to the maze.\nCognitively impaired aged rats were implanted unilaterally with a cannula into the lateral ventricle. Stereotaxic coordinates were 1.0 mm posterior to bregma, 1.5 mm lateral to midline, and 3.5 mm ventral to the skull surface. After about a week of recovery, the rats were pre-trained in a water maze for 2 days (6 trials per day) to locate a submerged escape platform hidden underneath the surface of the pool, in which the escape platform location varied from day to day. No intracerebroventricular (ICV) infusion was given during pre-training.\nAfter pre-training, rats received ICV infusion of either 100 μg 6,6 dimethyl-3-(3-hydroxypropyl)thio-1-(thiazol-2-yl)-6,7-dihydro-2-benzothiophen-4(5H)-one (n=6) in 5 μl DMSO or vehicle DMSO (n=5) 40 min prior to water maze training and testing. Training consisted of 8 trials per day for 2 days where the hidden escape platform remained in the same location. Rats were given 60 seconds to locate the platform with a 60 seconds inter-trial interval. The rats were given a probe test (120 seconds) 24 hr. after the end of training where the escape platform was removed. During the training, there were 4 blocks, where each block had 4 training trials.\nDuring a test trial 24 hr. after training, the escape platform was removed. The search/swim pattern of the rats was used to measure whether the rats remember where the escape platform was located during pre-trial training in order to test for the long-term memory of the rats. In this trial, “target annulus” is a designated area 1.5 times the size of the escape platform around the area where the platform was located during pre-trial training. “Opposite annulus” is a control area of the same size as the size of the target annulus, which is located opposite to the target annulus in the pool. If the rats had good long term memory, they would tend to search in the area surrounding the location where the platform was during the pre-trial training (i.e., the “target” annulus; and not the “opposite” annulus). “Time in annulus” is the amount of time in seconds that the rat spent in the target or opposite annulus area. “Number (#) of crossings” in annulus is the number of times the rat swam across the target or opposite annulus area."}, "[7]": {"conditions": "probe test 24 hr. after training"}}, "data": [{"smiles": "CCOC(=O)c1ncn2c1CN(C)C(=O)c1cc(N=[N+]=[N-])ccc1-2", "note": "[Ro 15-4513]", "values": [{"measurement": "tracer level, hippocampus compared with cerebellum", "setting": "[1]; 1 μg/kg, i.v. tracer after vehicle", "result": "> 5", "unit": "fold"}]}, {"smiles": "CCOC(=O)c1ncn2c1Cn1c(C)nnc1-c1cc(OC)ccc1-2", "note": "[Ethyl 3-methoxy-7-methyl-9H-benzo[f]imidazo[1,5-a][1,2,4]tri]", "values": [{"measurement": "effect on Ro 15-4513 binding in hippocampus and cerebellum", "setting": "[1]; i.v.", "result": "blocked the binding of Ro154513 in the hippocampus but did not affect binding of Ro15413 in the cerebellum"}]}, {"smiles": "CCc1nc(-c2ncn3c2Cc2c(Cc4ccccc4)nnn2-c2cc(OC)ccc2-3)no1", "note": "[Compound 194]", "values": [{"measurement": "Ki", "setting": "[2]", "result": "< 99", "unit": "nM"}, {"measurement": "activation at 0.1 µM", "setting": "[3]", "result": "> 50", "unit": "%"}]}, {"smiles": "C#Cc1ccc2c(c1)C(c1ccccc1F)=N[C@H](C)c1c(C(=O)OCC)ncn1-2", "note": "[SH-053-2′F—R—CH3]", "values": [{"measurement": "number of spontaneously active DA neurons in the VTA", "setting": "[4]; MAM rats, systemic or infused into the ventral HPC", "result": "reduces the number of spontaneously active DA neurons in the ventral tegmental area (VTA) of MAM rats to levels observed in saline-treated rats"}, {"measurement": "locomotor response to amphetamine", "setting": "[4]; MAM-treated rats", "result": "is reduced"}, {"measurement": "cortical-evoked responses of HPC neurons", "setting": "[4]; saline-treated and MAM-treated animals", "result": "diminished cortical-evoked responses"}]}, {"smiles": "COc1ccc2c(c1)-n1nnc(Cc3ccccc3)c1Cc1c(C#N)ncn1-2", "note": "[Compound 207]", "values": [{"measurement": "Ki", "setting": "[2]", "result": "< 99", "unit": "nM"}, {"measurement": "activation at 0.1 µM", "setting": "[3]", "result": "20 to 49", "unit": "%"}]}, {"smiles": "COc1ccc2c(c1)-n1nnc(COc3ccccc3)c1Cc1c(-c3noc(C)n3)ncn1-2", "note": "[Compound 182]", "values": [{"measurement": "Ki", "setting": "[2]", "result": "< 99", "unit": "nM"}, {"measurement": "activation at 0.1 µM", "setting": "[3]", "result": "20 to 49", "unit": "%"}]}, {"smiles": "CCOC(=O)c1ncn2c1Cn1c(C)nnc1-c1cc(OC)ccc1-2", "note": "[ethyl 3-methoxy-7-methyl-9H-benzo[f]imidazo[1,5-a][1,2,4]tri]", "values": [{"measurement": "effect on Ro 15-4513 binding in hippocampus and cerebellum", "setting": "[1]; i.v.", "result": "reduced Ro 15-4513 binding in hippocampus, without affecting cerebellum levels of Ro 15-4513"}, {"measurement": "GABAA α5 receptor occupancy", "setting": "[1]; 10 mg/kg, i.v.", "result": "> 90", "unit": "%"}, {"measurement": "memory performance relative to vehicle control", "setting": "[5]; 3 mg/kg, t(7)=4.13, p=0.004, or t(7)=3.08, p=0.018", "result": "significantly improved memory performance"}, {"measurement": "memory performance relative to vehicle control", "setting": "[5]; 10 mg/kg, t(7)=2.82, p=0.026", "result": "significantly improved memory performance"}]}, {"smiles": "C#Cc1ncn2c1Cn1c(COc3ccccc3)nnc1-c1cc(Cl)ccc1-2", "note": "[Compound 205]", "values": [{"measurement": "Ki", "setting": "[2]", "result": "< 99", "unit": "nM"}, {"measurement": "activation at 0.1 µM", "setting": "[3]", "result": "20 to 49", "unit": "%"}]}, {"smiles": "CCOCc1nnc2n1Cc1c(-c3nc(C(C)C)no3)ncn1-c1ccc(Cl)cc1-2", "note": "[Compound 254]", "values": [{"measurement": "Ki", "setting": "[2]", "result": "< 99", "unit": "nM"}, {"measurement": "activation at 0.1 µM", "setting": "[3]", "result": "20 to 49", "unit": "%"}]}, {"smiles": "C#Cc1ncn2c1Cn1c(COC)nnc1-c1cc(Cl)ccc1-2", "note": "[Compound 256]", "values": [{"measurement": "Ki", "setting": "[2]", "result": "< 99", "unit": "nM"}, {"measurement": "activation at 0.1 µM", "setting": "[3]", "result": "20 to 49", "unit": "%"}]}, {"smiles": "N#Cc1ncn2c1Cc1c(COc3ccccc3)nnn1-c1cc(Cl)ccc1-2", "note": "[Compound 226]", "values": [{"measurement": "Ki", "setting": "[2]", "result": "< 99", "unit": "nM"}, {"measurement": "activation at 0.1 µM", "setting": "[3]", "result": "20 to 49", "unit": "%"}]}, {"smiles": "CC1(C)CC(=O)c2c(SCCCO)sc(-c3nccs3)c2C1", "note": "[6,6 dimethyl-3-(3-hydroxypropyl)thio-1-(thiazol-2-yl)-6,7-dihydro-2-benzothiophen-4(5H)-one]", "values": [{"measurement": "time to find the escape platform", "setting": "[6]; block 1 (beginning of training)", "result": "about 24 seconds"}, {"measurement": "time to find the escape platform", "setting": "[6]; block 4 (end of training)", "result": "about 9.6 seconds"}, {"measurement": "number of crossings of target annulus compared with opposite annulus", "setting": "[6]; [7]", "result": "crossed the “target annulus” more often"}, {"measurement": "time in target annulus compared with opposite annulus", "setting": "[6]; [7]", "result": "spent significantly more time in the target annulus"}]}, {"smiles": "COCc1nnc2n1Cc1c(-c3noc(C(C)C)n3)ncn1-c1ccc(F)cc1-2", "note": "[Compound 186]", "values": [{"measurement": "Ki", "setting": "[2]", "result": "< 99", "unit": "nM"}, {"measurement": "activation at 0.1 µM", "setting": "[3]", "result": "> 50", "unit": "%"}]}, {"smiles": "CCOCc1nnc2n1Cc1c(-c3noc(C(C)C)n3)ncn1-c1ccc(F)cc1-2", "note": "[Compound 187]", "values": [{"measurement": "Ki", "setting": "[2]", "result": "< 99", "unit": "nM"}, {"measurement": "activation at 0.1 µM", "setting": "[3]", "result": "20 to 49", "unit": "%"}]}]}
